Experiments:
Test in all cases: Kinase selectivity, scanMAX Kinase assay panel (DiscoverX), % control at 1 uM
Assay type in all cases: binding
[1] = molecular target: T1, scanMAX Kinase assay panel (Homo sapiens, UniProt P21709); settings: EPHA1; 1 uM; read-out: Percent Control (%)
T1 construct: purchased DiscoverX
T1 sequence (P21709 26-976): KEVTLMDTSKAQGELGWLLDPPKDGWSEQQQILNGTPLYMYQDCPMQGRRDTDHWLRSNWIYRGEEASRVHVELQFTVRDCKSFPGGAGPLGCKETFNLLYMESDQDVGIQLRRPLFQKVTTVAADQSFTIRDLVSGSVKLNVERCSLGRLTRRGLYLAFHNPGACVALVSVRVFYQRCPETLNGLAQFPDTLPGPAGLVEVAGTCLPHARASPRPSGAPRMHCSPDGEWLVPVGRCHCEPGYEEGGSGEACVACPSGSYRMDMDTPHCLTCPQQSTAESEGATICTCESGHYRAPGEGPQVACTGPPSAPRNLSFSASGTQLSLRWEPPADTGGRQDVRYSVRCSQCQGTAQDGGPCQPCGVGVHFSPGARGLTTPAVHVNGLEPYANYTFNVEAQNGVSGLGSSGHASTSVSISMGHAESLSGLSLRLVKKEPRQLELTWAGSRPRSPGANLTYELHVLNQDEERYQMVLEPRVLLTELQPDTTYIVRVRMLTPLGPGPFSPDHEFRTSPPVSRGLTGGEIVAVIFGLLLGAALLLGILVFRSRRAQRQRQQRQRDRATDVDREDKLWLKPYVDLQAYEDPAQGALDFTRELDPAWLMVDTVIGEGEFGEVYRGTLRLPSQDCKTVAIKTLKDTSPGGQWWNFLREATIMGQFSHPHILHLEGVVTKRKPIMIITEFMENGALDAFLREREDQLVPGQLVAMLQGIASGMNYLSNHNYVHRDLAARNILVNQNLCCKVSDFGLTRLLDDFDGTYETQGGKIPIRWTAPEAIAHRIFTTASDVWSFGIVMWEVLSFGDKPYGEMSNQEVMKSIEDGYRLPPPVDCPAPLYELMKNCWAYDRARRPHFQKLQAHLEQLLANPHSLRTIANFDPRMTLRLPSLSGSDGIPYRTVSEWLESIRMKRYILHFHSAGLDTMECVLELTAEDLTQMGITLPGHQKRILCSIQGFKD
Method in brief: (§1)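 Compounds were tested at 1 uM in DMSO against each enzyme in the panel. Percent control was calculated as (compound − positive control)/(negative control − positive control) × 100, and a compound was scored active on a kinase when this value fell below 35.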

[2] = molecular target: T2, scanMAX Kinase assay panel (Homo sapiens, UniProt Q9UPZ9); settings: ICK; 1 uM; read-out: Percent Control (%)
T2 construct: purchased DiscoverX
T2 sequence (Q9UPZ9 1-632): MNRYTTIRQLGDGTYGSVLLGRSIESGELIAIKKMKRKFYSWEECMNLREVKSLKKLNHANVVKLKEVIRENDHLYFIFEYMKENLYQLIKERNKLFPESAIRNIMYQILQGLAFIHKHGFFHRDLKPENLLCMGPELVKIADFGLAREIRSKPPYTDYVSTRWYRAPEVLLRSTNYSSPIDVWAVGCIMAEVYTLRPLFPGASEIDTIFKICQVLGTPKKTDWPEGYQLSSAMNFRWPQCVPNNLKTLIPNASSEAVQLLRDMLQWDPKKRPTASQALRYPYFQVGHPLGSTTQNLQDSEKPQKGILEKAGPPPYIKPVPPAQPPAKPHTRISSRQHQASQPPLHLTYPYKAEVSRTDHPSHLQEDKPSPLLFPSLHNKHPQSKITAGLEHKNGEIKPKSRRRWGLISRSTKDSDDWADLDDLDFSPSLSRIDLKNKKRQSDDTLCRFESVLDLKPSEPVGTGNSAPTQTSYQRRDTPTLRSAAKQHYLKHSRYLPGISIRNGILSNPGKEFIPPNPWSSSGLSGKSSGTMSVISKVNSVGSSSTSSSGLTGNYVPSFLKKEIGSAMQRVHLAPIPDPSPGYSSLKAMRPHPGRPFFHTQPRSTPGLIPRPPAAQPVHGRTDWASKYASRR
Method in brief: as §1

[3] = molecular target: T3, scanMAX Kinase assay panel (Homo sapiens, UniProt P42679); settings: CTK; 1 uM; read-out: Percent Control (%)
T3 construct: purchased DiscoverX
T3 sequence (P42679 1-507): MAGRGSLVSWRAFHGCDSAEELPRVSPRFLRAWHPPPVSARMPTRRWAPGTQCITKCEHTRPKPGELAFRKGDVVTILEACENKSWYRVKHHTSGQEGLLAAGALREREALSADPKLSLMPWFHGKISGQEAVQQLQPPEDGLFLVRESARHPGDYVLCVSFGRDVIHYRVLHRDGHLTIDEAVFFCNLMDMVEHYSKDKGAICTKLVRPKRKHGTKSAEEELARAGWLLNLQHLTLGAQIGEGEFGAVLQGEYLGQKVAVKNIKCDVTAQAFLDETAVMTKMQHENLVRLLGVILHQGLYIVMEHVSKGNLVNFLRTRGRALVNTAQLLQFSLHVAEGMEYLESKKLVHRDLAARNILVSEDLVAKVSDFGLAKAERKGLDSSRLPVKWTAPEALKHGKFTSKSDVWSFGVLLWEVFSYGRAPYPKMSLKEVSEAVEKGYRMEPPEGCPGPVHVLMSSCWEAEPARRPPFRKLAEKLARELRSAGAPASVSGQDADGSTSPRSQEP
Method in brief: as §1

[4] = molecular target: T4, scanMAX Kinase assay panel (Homo sapiens, UniProt P10721, T670I/V559D); settings: KIT (V559D, T670I); 1 uM; read-out: Percent Control (%)
T4 construct: purchased DiscoverX
Method in brief: as §1

[5] = molecular target: T5, scanMAX Kinase assay panel (Homo sapiens, UniProt P17948); settings: FLT1; 1 uM; read-out: Percent Control (%)
T5 construct: purchased DiscoverX
Method in brief: as §1

T5 sequence (P17948 27-1338): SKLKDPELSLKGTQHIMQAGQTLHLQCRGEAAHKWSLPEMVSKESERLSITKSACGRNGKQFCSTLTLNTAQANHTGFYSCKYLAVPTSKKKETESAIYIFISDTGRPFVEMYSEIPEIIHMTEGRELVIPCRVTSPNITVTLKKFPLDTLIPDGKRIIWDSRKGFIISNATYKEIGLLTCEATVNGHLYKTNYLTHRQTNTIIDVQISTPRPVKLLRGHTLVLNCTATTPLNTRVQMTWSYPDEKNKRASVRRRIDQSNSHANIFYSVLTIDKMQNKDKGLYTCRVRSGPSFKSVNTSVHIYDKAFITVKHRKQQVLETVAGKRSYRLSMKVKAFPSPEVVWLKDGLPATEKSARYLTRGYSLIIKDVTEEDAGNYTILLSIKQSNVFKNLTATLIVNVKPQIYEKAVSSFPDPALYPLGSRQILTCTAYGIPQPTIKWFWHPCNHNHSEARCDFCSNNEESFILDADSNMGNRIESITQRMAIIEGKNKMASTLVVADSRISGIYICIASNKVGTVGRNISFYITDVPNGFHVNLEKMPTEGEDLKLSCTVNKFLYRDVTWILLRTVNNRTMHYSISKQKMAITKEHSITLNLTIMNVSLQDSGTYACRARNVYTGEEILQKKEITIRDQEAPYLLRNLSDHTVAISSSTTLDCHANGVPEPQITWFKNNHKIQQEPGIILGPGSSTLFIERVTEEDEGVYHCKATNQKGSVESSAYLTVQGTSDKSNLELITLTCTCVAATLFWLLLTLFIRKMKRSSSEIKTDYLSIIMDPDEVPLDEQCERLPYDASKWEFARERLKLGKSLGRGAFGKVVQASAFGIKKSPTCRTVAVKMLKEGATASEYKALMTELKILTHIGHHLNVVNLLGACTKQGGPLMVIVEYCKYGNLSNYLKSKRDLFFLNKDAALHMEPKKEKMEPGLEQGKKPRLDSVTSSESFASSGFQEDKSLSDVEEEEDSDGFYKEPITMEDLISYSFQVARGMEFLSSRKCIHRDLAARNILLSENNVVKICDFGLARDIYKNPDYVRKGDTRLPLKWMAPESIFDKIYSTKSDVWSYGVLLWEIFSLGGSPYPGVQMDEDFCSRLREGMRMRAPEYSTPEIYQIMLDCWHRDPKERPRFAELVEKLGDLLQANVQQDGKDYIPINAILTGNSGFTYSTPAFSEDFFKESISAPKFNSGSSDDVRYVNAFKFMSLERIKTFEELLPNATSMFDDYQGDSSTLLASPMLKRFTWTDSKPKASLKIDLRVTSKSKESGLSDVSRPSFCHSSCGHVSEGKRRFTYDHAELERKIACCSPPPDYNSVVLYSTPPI
T4 sequence (P10721 26-976 V559D/T670I): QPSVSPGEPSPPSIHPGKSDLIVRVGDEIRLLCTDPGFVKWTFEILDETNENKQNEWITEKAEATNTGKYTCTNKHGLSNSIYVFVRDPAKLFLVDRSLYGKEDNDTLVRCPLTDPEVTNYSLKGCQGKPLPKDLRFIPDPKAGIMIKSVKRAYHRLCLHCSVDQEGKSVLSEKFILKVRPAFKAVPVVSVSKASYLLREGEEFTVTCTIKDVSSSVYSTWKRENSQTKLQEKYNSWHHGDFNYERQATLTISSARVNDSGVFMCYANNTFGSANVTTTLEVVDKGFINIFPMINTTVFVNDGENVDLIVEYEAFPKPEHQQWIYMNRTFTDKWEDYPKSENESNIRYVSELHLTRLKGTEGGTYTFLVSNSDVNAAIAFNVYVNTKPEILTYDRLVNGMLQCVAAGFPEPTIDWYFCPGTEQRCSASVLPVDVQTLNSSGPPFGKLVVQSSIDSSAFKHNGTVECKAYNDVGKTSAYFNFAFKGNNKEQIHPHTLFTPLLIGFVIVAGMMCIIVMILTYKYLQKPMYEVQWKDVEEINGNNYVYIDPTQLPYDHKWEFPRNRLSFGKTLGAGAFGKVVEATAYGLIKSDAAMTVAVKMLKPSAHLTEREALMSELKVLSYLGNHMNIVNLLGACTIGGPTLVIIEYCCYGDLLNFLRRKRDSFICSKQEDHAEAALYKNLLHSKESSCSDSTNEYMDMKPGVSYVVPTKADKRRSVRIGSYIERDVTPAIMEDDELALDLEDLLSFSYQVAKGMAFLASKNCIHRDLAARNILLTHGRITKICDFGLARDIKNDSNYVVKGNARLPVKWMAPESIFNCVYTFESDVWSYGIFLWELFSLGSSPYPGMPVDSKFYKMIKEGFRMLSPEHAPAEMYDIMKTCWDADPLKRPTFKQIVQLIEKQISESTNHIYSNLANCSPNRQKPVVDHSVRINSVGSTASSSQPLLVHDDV

Structure (SMILES)	remaining binding at 1 µM [1]	remaining binding at 1 µM [2]	remaining binding at 1 µM [3]	remaining binding at 1 µM [4]	remaining binding at 1 µM [5]
Cc1ccc(C(=O)Nc2ccc(CN3CCN(C)CC3)c(C(F)(F)F)c2)cc1C#Cc1cnc2c(Nc3cnn(C)c3)cccn12 [Example 1, 4-methyl-3-((8-((1-methyl-1H-pyrazol-4-yl)amino)imidazo[1,2-a]pyridin-3-yl)ethynyl)-N-(4-((4-methylpiperazin-1-yl)methyl)-3-(trifluoromethyl)phenyl)benzamide]	2%	58%	22%	0%	3%
Cc1cn(-c2cc(NC(=O)c3ccc(C)c(C#Cc4cnc5c(Nc6cnn(C)c6)cccn45)c3)cc(C(F)(F)F)c2)cn1 [Example 12, 4-methyl-N-(3-(4-methyl-1H-imidazol-1-yl)-5-(trifluoromethyl)phenyl)-3-((8-((1-methyl-1H-pyrazol-4-yl)amino)imidazo[1,2-a]pyridin-3-yl)ethynyl)benzamide]	8%	100%	74%	3%	16%
Cc1ccc(NC(=O)C2(C(=O)Nc3ccc(F)cc3)CC2)cc1C#Cc1cnc2c(Nc3cnn(C(C)C)c3)cccn12 [Example 78]	69%	100%	90%	63%	84%

Source: patent US10870647B2, “Imidazopyridine derivative, method for preparing same, and pharmaceutical composition containing same as active ingredient for preventing or treating cancer” (DAEGU-GYEONGBUK MEDICAL INNOVATION FOUNDATION, priority 2016, dated 2020)
